The values below come from patent publication US4141988A, “2,9-Dioxatricyclo[4,3,1,0^3,7 ]decane derivatives, processes for their preparation and pharmaceutical compositions thereof” (Kali-Chemie Pharma GmbH, priority 1977, dated 1979).

Some results are limits rather than exact numbers.

Series [1] concerns rhesus monkey. Kind of series: step-irritation test in the rhesus monkey. Type of series: in vivo.
Series [2] in a line: inhibition of intestinal motility in mice. As to conditions: mouse, in vivo, po, read-out: intestinal motility inhibiting ED50.
A further series deals with bradykinin induced pain. Kind of series: bradykinin induced pain test in rats (s.c.). It counts as in vivo, rat. How it is done: For example, the MED of both, the test substance 32-527 and morphine, is 0,56 mg/kg in the so-called step-irritation test in the rhesus monkey upon s.c. administration. Upon s.c. administration, the ED50 of the two substances for inhibiting the bradykinin induced pain in rats are as follows: […]

Series [3] concerns mice, rats and rhesus monkeys. Kind of series: analgesic activity in mice, rats and rhesus monkeys. It counts as in vivo.
The next series can be described thus: acute toxicity. As to conditions: compared with propoxyphene or profadol. Type of series: in vivo.
The test system of series [4] is rhesus monkey. As to the kind of experiment: self-administration test (addiction) in the rhesus monkey. As to conditions: contrary to morphine. It counts as in vivo. How it is done:
test substance No. 32-527 < 5,6 mg/kg and morphine 3,6 mg/kg.

In the case of `CN1CC[C@]23c4c5ccc(O)c4O[C@H]2[C@@H](O)C=C[C@H]3[C@H]1C5` [morphine, reference compound], the minimal effective dose in the series on rhesus monkey [1] (Macaca mulatta, sc, read-out: MED) amounted to 0.56 mg/kg. The median effective dose (ED50) (usually the midpoint of the dose-response relation) in series [2] came to 39 mg/kg. Further, in the series on bradykinin induced pain, the “ED50 for inhibiting the bradykinin induced pain” value is given as 3,6 mg/kg.

Take `COC1OC2OC3(C)C(NCCc4ccccc4Cl)CC(C2C)C13.Cl` (stereo not drawn) [test substance No. 32-527, 4 α-(o-chlorophenethylamino)-3,10-dimethyl-8-methoxy-2,9-dioxatricyclo[4,3,1,0^3,7]decane hydrochloride]: the “analgesic activity compared with morphine” value in series [3] (enteral and parenteral) was “of about the same order as that of morphine”. For the same compound, the analgesic activity result in series [3] (enteral and parenteral administration) was “exhibits analgesic activities”. Besides, in “acute toxicity”, the acute toxicity result is “similarly low toxicity as that of propoxyphene or profadol”. In addition, the MED in the series on rhesus monkey [1] (step-irritation test, rhesus monkey, s.c.) is reported as 0,56 mg/kg. Further, in the series on rhesus monkey [4], the “addiction syndroms in the self-administration test” value is given as “practically no addiction syndroms are observed”. Also, the “ED50 for inhibiting the bradykinin induced pain” value in the series on bradykinin induced pain is listed as < 5,6 mg/kg.
